This is an account of results in patent US20260234159A1, “SMALL MOLECULE TREATMENT OF FATTY LIVER DISEASE AND HCC” (SCANDIEDGE THERAPEUTICS AB, priority 2023, published 2026).

Structures are written as SMILES. Where two headings read alike, the source gives them in different places.

Data set [1] concerns HepG2 cells. The experiment in a line: Triglyceride (TAG) measurement assay, one week steatosis model. Particulars: for activity at 10 µM: Homo sapiens. It counts as cell-based, human. The procedure: (§1) HepG2 wild type cells were purchased from genome engineering company Synthego. Cells were maintained with Roswell Park Memorial Institute growth media, RPMI, 1640 (R2405, Sigma-Aldrich) and supplemented with 10% fetal bovine serum (FBS, F7524, Sigma-Aldrich), 1% penicillin-streptomycin (P/S, P4333, Sigma-Aldrich). Steatosis induction media was prepared as high glucose Dulbecco's Modified Eagle Media (DMEM, D0819, Sigma-Aldrich) with 10% FBS, 1% P/S media supplemented with 10 μg/ml insulin (I9278, Sigma-Aldrich), and 10 μM T0901317 (T2320, Sigma-Aldrich). HepG2 cells were seeded 6×10^4 cells per well for 96-well plate and 1×10^6 cells per well for 6-well plate. HepG2 cells were incubated with steatosis induce media (SM) for one week by 3 day+2 day+2 day with total three times media exchange.
HepG2 cells were seeded at 6×10^4 cells per well into 96 well plate and induced steatosis for one week with 10 μM of target drugs. After steatosis induction, cells were washed with 200 μl of phosphate buffered saline (PBS) and triglyceride contents was measured by Triglyceride Assay Kit—Quantification (ab65336, Abcam) following manufacturer's instruction. Optical density (O.D) values were detected with microplate reader at 570 nm (Hidex Sense Beta Plus).
(§2) HepG2 cells were seeded at 60,000 cells per well in 96 well plate. Using steatosis induce media, the cells were treated with 10 μM of target drugs for one week. The media was changed 3 times at day 0, day 3 and day 5. TAG assay was performed using MAK266-1KT SDS Triglyceride Quantification Colorimetric kit and cell viability analysis was performed using MTT assay.

Data set [2] is described as follows: MTT cell viability after one week steatosis (ranking of target molecules). It counts as cell-based, human. Particulars: human, HepG2 cells (wild type); HepG2, 10 μM, one week steatosis induce media, MTT; Control 100.00. The procedure: as §1, §2
Where [3] appears, read: 168 h, HepG2, 10 μM, one week steatosis induce media, Control 100.00, read-out: TAG (%).
The mark [4] stands for this setting: HepG2, 168 h, ratio between TAG content and cell viability, Control 100.0, read-out: TAG/cell viability.

The term viability denotes a read-out of living cells in per cent, often relative to untreated cells. A low value points to more harm to the cells. In the case of `N#Cc1c(NC(=O)c2cccc3ccccc23)sc2c1CCCCC2` [PKL-A56, N-(3-cyano-5,6,7,8-tetrahydro-4H-cyclohepta[b]thiophen-2-yl)-1-naphthamide], the activity at 10 µM in data set [1] (setting [3]) stood at 35.6%; in data set [1] (setting [4]) it was 62.5%. The viability at 1 week, 10 µM in data set [2] was found to be 57%.

Regarding `CC(=O)N1CCc2c(sc(NC(=O)c3cccc4ccccc34)c2C#N)C1` [PKL-A114], the activity at 10 µM amounted to 14.1% in data set [1] (setting [3]) and 28.6% in data set [1] (setting [4]). In data set [2], this compound came in with a viability at 1 week, 10 µM of 49.4%.

Take `CCOC(=O)CN1CCc2c(sc(NC(=O)c3cccc4ccccc34)c2C#N)C1` [PKL-A118]: the values for the activity at 10 µM in data set [1] (setting [3]) and in data set [1] (setting [4]) were 62.1% and 68.2%, respectively. This compound returned a viability at 1 week, 10 µM in data set [2] of 91%.

Consider `COc1ccc(C(=O)Nc2sc3ccccc3c2C#N)c2ccccc12` [PKL-A149], for which the activity at 10 µM in data set [1] (setting [3]) was determined as 30.8%; in data set [1] (setting [4]), 60.5%. Moreover, the viability at 1 week, 10 µM in data set [2] came to 50.9%.

Consider `COc1cccc(NC(=O)N2CCc3c(sc(NC(=O)c4cccc5ccccc45)c3C#N)C2)c1` [PKL-A151], for which, in data set [1], the “TAG content/cell viability ratio lower than JNK-IN-5A” value is listed as “more than 3 times”; the “ratio between TAG content and cell viability” value was “low ratio between TAG content and cell viability”. Besides, the activity at 10 µM in data set [1] (setting [3]) came to 11.5%. Further, in data set [1] (setting [4]), the activity at 10 µM was 18.7%. In data set [2], this compound showed a viability at 1 week, 10 µM of 61.6%.

As to `Cc1ccccc1NC(=O)N1CCc2c(sc(NC(=O)c3cccc4ccccc34)c2C#N)C1` [PKL-A153], the activity at 10 µM stood at 13.2% in data set [1] (setting [3]) and 31.2% in data set [1] (setting [4]). Also, the viability at 1 week, 10 µM in data set [2] turned out to be 42.5%.

Regarding `N#Cc1c(NC(=O)c2cccc3ccccc23)sc2c1CCN(C(=O)Nc1ccccc1[N+](=O)[O-])C2` [PKL-A154], the activity at 10 µM turned out to be 13.9% in data set [1] (setting [3]) and 30.3% in data set [1] (setting [4]). Also, the viability at 1 week, 10 µM in data set [2] is 46%.

As for `N#Cc1c(NC(=O)c2cccc3ccccc23)sc2c1CCN(C(=O)Nc1ccccc1Br)C2` [PKL-A157], the activity at 10 µM in data set [1] (setting [3]) is 12.8%; in data set [1] (setting [4]), 35.1%. Further, in data set [2], the viability at 1 week, 10 µM came to 36.5%.

For the compound `Cc1ccc(F)c(NC(=O)N2CCc3c(sc(NC(=O)c4cccc5ccccc45)c3C#N)C2)c1` [PKL-A160], the activity at 10 µM turned out to be 14.9% in data set [1] (setting [3]) and 26.4% in data set [1] (setting [4]). The compound further displayed a viability at 1 week, 10 µM in data set [2] of 56.4%.

As to `N#Cc1c(NC(=O)c2cccc3ccccc23)sc2c1CCN(C(=O)Nc1cccc3ccccc13)C2` [PKL-A161], the activity at 10 µM in data set [1] (setting [3]) came to 13.2%; in data set [1] (setting [4]), 29.8%. Moreover, in data set [2], the viability at 1 week, 10 µM is 44.1%.

For the compound `CN(C(=O)N1CCc2c(sc(NC(=O)c3cccc4ccccc34)c2C#N)C1)c1ccccc1` [PKL-A162], in data set [1], the “ratio between TAG content and cell viability” value was “low ratio between TAG content and cell viability”. The activity at 10 µM was 12.3% in data set [1] (setting [3]) and 25.1% in data set [1] (setting [4]). Besides, the TAG/cell viability in data set [1] (ratio as printed in text with %) is listed as 25.1%. The same compound registered a viability at 1 week, 10 µM in data set [2] of 49.2%.

`CCN(C)C(=O)N1CCc2c(sc(NC(=O)c3cccc4ccccc34)c2C#N)C1` [PKL-A163]: the activity at 10 µM stood at 12.7% in data set [1] (setting [3]) and 27.2% in data set [1] (setting [4]). Further, the viability at 1 week, 10 µM in data set [2] turned out to be 46.6%.

As for `N#Cc1c(NC(=O)c2cccc3ccccc23)sc2c1CCN(C(=O)N(c1ccccc1)c1ccccc1)C2` [PKL-A164], the activity at 10 µM in data set [1] (setting [3]) amounted to 17.3%; in data set [1] (setting [4]), 37.6%. The compound also came in with a viability at 1 week, 10 µM in data set [2] of 46%.

For the compound `COc1ccc(S(=O)(=O)N2CCc3c(sc(NC(=O)c4cccc5ccccc45)c3C#N)C2)cc1OC` [PKL-A179], the activity at 10 µM in data set [1] (setting [3]) was 34.7%; in data set [1] (setting [4]) it was 52.2%. In addition, the viability at 1 week, 10 µM in data set [2] turned out to be 66.5%.

Regarding `N#Cc1c(NC(=O)c2cccc3ccccc23)sc2c1CCN(S(=O)(=O)c1cccc3ccccc13)C2` [PKL-A183], the activity at 10 µM is 48.6% in data set [1] (setting [3]) and 67.2% in data set [1] (setting [4]). In data set [2], the viability at 1 week, 10 µM came out at 72.3%.

Consider `C=CC(=O)N1CCc2c(sc(NC(=O)c3cccc4ccccc34)c2C#N)C1` [PKL-A190], for which the activity at 10 µM in data set [1] (setting [3]) was found to be 24.2%; in data set [1] (setting [4]), 31.8%. The viability at 1 week, 10 µM in data set [2] amounted to 76.2%.

With `N#Cc1c(NC(=O)c2cccc3ccccc23)sc2c1CCN(C(=O)c1cccc(F)c1)C2` [PKL-A192], the activity at 10 µM in data set [1] (setting [3]) was found to be 22.9%; in data set [1] (setting [4]), 38%. Further, the viability at 1 week, 10 µM in data set [2] was found to be 60.1%.

In the case of `N#Cc1ccc(C(=O)N2CCc3c(sc(NC(=O)c4cccc5ccccc45)c3C#N)C2)cc1` [PKL-A193], the activity at 10 µM in data set [1] (setting [3]) worked out at 23.4%; in data set [1] (setting [4]), 37.6%. This compound also returned a viability at 1 week, 10 µM in data set [2] of 62.3%.

As for `C=CCN1CCc2c(sc(NC(=O)c3cccc4ccccc34)c2C#N)C1` [PKL-B129], the activity at 10 µM was 35.5% in data set [1] (setting [3]) and 49.9% in data set [1] (setting [4]). Moreover, the viability at 1 week, 10 µM in data set [2] is 71.2%.

For the compound `N#Cc1c(NC(=O)c2cccc3ccccc23)sc2c1CCN(CC(=O)c1ccccc1)C2` [PKL-B130], the activity at 10 µM is 16.8% in data set [1] (setting [3]) and 26.2% in data set [1] (setting [4]). In data set [2], the viability at 1 week, 10 µM was 64.1%.

Consider `CC(C)CCN1CCc2c(sc(NC(=O)c3cccc4ccccc34)c2C#N)C1` [PKL-B133], for which the activity at 10 µM in data set [1] (setting [3]) was found to be 28.1%; in data set [1] (setting [4]), 40.6%. Moreover, the viability at 1 week, 10 µM in data set [2] is 69.3%.

Take `N#Cc1c(NC(=O)c2cccc3ccccc23)sc2c1CCN(CCn1cnc3ccccc31)C2` [PKL-B153, N-(6-(2-(1H-benzo[d]imidazol-1-yl)ethyl)-3-cyano-4,5,6,7-tetrahydrothieno[2,3c]pyridin-2-yl)-1-naphthamide]: the activity at 10 µM stood at 34.3% in data set [1] (setting [3]) and 46.4% in data set [1] (setting [4]). Further, the viability at 1 week, 10 µM in data set [2] turned out to be 74%.

For the compound `N#Cc1c(NC(=O)c2cccc3ccccc23)sc2c1CCN(CC(=O)NC1CCOCC1)C2` [PKL-B164], the activity at 10 µM in data set [1] (setting [3]) turned out to be 36.8%; in data set [1] (setting [4]) it was 49.6%. In data set [2], the viability at 1 week, 10 µM is 74.1%.

`C#Cc1cccc(NC(=O)CN2CCc3c(sc(NC(=O)c4cccc5ccccc45)c3C#N)C2)c1` [PKL-B170]: the activity at 10 µM was determined as 55.6% in data set [1] (setting [3]) and 84.2% in data set [1] (setting [4]). Also, the viability at 1 week, 10 µM in data set [2] was found to be 66%.

As to `N#Cc1c(NC(=O)c2cccc3ccccc23)sc2c1CCN(CC(=O)Nc1ccccc1)C2` [PKL-B173], the activity at 10 µM in data set [1] (setting [3]) is 34.7%; in data set [1] (setting [4]), 49%. The viability at 1 week, 10 µM in data set [2] came to 70.8%.
